Assay results reported in patent US20260265265A1, “NOVEL BENZIMIDAZOLONE DERIVATIVE COMPOUND AS AUTOTAXIN INHIBITOR” (LG CHEM, LTD., priority 2023, published 2026).
pIC50: −log10 of the molar value.

Biological target: T1, Recombinant Human ENPP-2/Autotaxin (Homo sapiens, UniProt Q13822)
T1 construct: purchased R&D systems 5255-EN
Assay: LysoPLD activity measurement (autotaxin enzyme inhibition, choline release, TOOS reagent)
Format: biochemical
Conditions: LysoPLD inhibitory activity; substrate 14:0 LysoPC; absorbance at 555 nm
Summary of the method: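 Enzyme and compound were preincubated for 30 min before adding 14:0 LysoPC substrate, diluted to 300 μM, for 90 minutes at 37° C. The choline product was quantified colorimetrically with TOOS reagent. Wells without compound held 1% DMSO.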

Row | pIC50 | Compound
1 | 7.00 to 8.00 | CC(C)(O)c1ccc(-n2c(=O)n(Cc3cccc(C(=O)O)c3)c3ccc(Cl)cc32)cc1 [Example 18, 3-((5-chloro-3-(4-(2-hydroxypropan-2-yl)phenyl)-2-oxo-2,3-dihydro-1H-benzo[d]imidazol-1-yl)methyl)benzoic acid]
2 | 7.00 to 8.00 | CC(C)(F)Cc1ccc(-n2c(=O)n(C3(c4cccc(C(=O)O)c4)CC3)c3ccc(Cl)cc32)cc1 [Example 217, 3-(1-(5-chloro-3-(4-(2-fluoro-2-methylpropyl)phenyl)-2-oxo-2,3-dihydro-1H-benzo[d]imidazol-1-yl)cyclopropyl)benzoic acid]
3 | 7.00 to 8.00 | O=C(O)c1cccc(Cn2c(=O)n(-c3ccc(C4CCOCC4)cc3)c3cc(Cl)ccc32)c1 [Example 103, 3-((5-chloro-2-oxo-3-(4-(tetrahydro-2H-pyran-4-yl)phenyl)-2,3-dihydro-1H-benzo[d]imidazol-1-yl)methyl)benzoic acid]
4 | 7.00 to 8.00 | O=C(O)c1cccc(Cn2c(=O)n(-c3ccc(N4CCOCC4)cc3)c3c(F)c(Cl)ccc32)n1 [Example 52, 6-((5-chloro-4-fluoro-3-(4-morpholinophenyl)-2-oxo-2,3-dihydro-1H-benzo[d]imidazol-1-yl)methyl)picolinic acid]
5 | 7.00 to 8.00 | O=C(O)c1cccc(Cn2c(=O)n(-c3ccc(N4CC(O)C4)cc3)c3c(F)c(Cl)ccc32)c1F [Example 120, 3-((5-chloro-4-fluoro-3-(4-(3-hydroxyazetidin-1-yl)phenyl)-2-oxo-2,3-dihydro-1H-benzo[d]imidazol-1-yl)methyl)-2-fluorobenzoic acid]
6 | > 8.00 | O=C(O)c1cc(F)cc(C2(n3c(=O)n(-c4ccc(N5CCOCC5)cc4)c4cc(Cl)ccc43)CC2)c1 [Example 187, 3-(1-(5-chloro-3-(4-morpholinophenyl)-2-oxo-2,3-dihydro-1H-benzo[d]imidazol-1-yl)cyclopropyl)-5-fluorobenzoic acid]
7 | 6.00 to 7.00 | O=C(O)c1cccc(Cn2c(=O)n(-c3ccc(N4CCC(F)(F)C4)cc3)c3c(F)c(Cl)ccc32)c1 [Example 105, 3-((5-chloro-3-(4-(3,3-difluoropyrrolidin-1-yl)phenyl)-4-fluoro-2-oxo-2,3-dihydro-1H-benzo[d]imidazol-1-yl)methyl)benzoic acid]
8 | > 8.00 | CN(C)C(=O)Cc1ccc(-n2c(=O)n(C3(c4cc(F)cc(C(=O)O)c4)CC3)c3ccc(Cl)cc32)cc1 [Example 189, 3-(1-(5-chloro-3-(4-(2-(dimethylamino)-2-oxoethyl)phenyl)-2-oxo-2,3-dihydro-1H-benzo[d]imidazol-1-yl)cyclopropyl)-5-fluorobenzoic acid]
9 | > 8.00 | CC1(C)COC(=O)N1c1ccc(-n2c(=O)n(C3(c4cccc(C(=O)O)c4)CC3)c3ccc(Cl)cc32)cc1 [Example 242, 3-(1-(5-chloro-3-(4-(4,4-dimethyl-2-oxooxazolidin-3-yl)phenyl)-2-oxo-2,3-dihydro-1H-benzo[d]imidazol-1-yl)cyclopropyl)benzoic acid]
10 | 7.00 to 8.00 | O=C(O)c1cc(Cn2c(=O)n(-c3ccc(N4CCOCC4)cc3)c3c(F)c(Cl)ccc32)cc(F)c1F [Example 202, 5-((5-chloro-4-fluoro-3-(4-morpholinophenyl)-2-oxo-2,3-dihydro-1H-benzo[d]imidazol-1-yl)methyl)-2,3-difluorobenzoic acid]
11 | 6.00 to 7.00 | O=C(O)c1cccc(C2(n3c(=O)n(-c4ccc(Cn5ccc(C(F)(F)F)n5)cc4)c4cc(Cl)ccc43)CC2)c1 [Example 244, 3-(1-(5-chloro-2-oxo-3-(4-((3-(trifluoromethyl)-1H-pyrazol-1-yl)methyl)phenyl)-2,3-dihydro-1H-benzo[d]imidazol-1-yl)cyclopropyl)benzoic acid]
12 | 6.00 to 7.00 | CC(C)n1cc(-n2c(=O)n(Cc3cccc(C(=O)O)c3)c3ccc(Cl)cc32)cn1 [Example 89, 3-((5-chloro-3-(1-isopropyl-1H-pyrazol-4-yl)-2-oxo-2,3-dihydro-1H-benzo[d]imidazol-1-yl)methyl)benzoic acid]
13 | > 8.00 | C[C@@H]1COCCN1C(=O)Cc1ccc(-n2c(=O)n(C3(c4cccc(C(=O)O)c4)CC3)c3ccc(Cl)cc32)cc1 [Example 178, (R)-3-(1-(5-chloro-3-(4-(2-(3-methylmorpholino)-2-oxoethyl)phenyl)-2-oxo-2,3-dihydro-1H-benzo[d]imidazol-1-yl)cyclopropyl)benzoic acid]
14 | > 8.00 | O=C(O)c1cccc(C2(n3c(=O)n(-c4ccc(C5CCOCC5)cc4)c4cc(Cl)ccc43)CC2)c1 [Example 99, 3-(1-(5-chloro-2-oxo-3-(4-(tetrahydro-2H-pyran-4-yl)phenyl)-2,3-dihydro-1H-benzo[d]imidazol-1-yl)cyclopropyl)benzoic acid]
15 | > 8.00 | O=C(O)c1cccc(C2(n3c(=O)n(-c4ccc(C5=CCOC5)cc4)c4cc(Cl)ccc43)CC2)c1F [Example 123, 3-(1-(5-chloro-3-(4-(2,5-dihydrofuran-3-yl)phenyl)-2-oxo-2,3-dihydro-1H-benzo[d]imidazol-1-yl)cyclopropyl)-2-fluorobenzoic acid]
16 | 6.00 to 7.00 | O=C(O)c1cccc(Cn2c(=O)n(-c3ccc(C(=O)NCC(F)(F)F)cc3)c3cc(Cl)ccc32)c1 [Example 23, 3-((5-chloro-2-oxo-3-(4-((2,2,2-trifluoroethyl)carbamoyl)phenyl)-2,3-dihydro-1H-benzo[d]imidazol-1-yl)methyl)benzoic acid]
17 | 6.00 to 7.00 | CC1CC=C(c2ccc(-n3c(=O)n(Cc4cccc(C(=O)O)c4F)c4ccc(Cl)cc43)cc2)CC1 (stereo not drawn) [Example 111, 3-((5-chloro-3-(4′-methyl-2′,3′,4′,5′-tetrahydro-′[1,1′-biphenyl]-4-yl)-2-oxo-2,3-dihydro-1H-benzo[d]imidazol-1-yl)methyl)-2-fluorobenzoic acid]
18 | 7.00 to 8.00 | O=C(O)c1cccc(C2(n3c(=O)n(-c4ccc(-c5nnc(C6CCCCCC6)o5)cc4)c4cc(Cl)ccc43)CC2)c1 [Example 264, 3-(1-(5-chloro-3-(4-(5-cycloheptyl-1,3,4-oxadiazol-2-yl)phenyl)-2-oxo-2,3-dihydro-1H-benzo[d]imidazol-1-yl)cyclopropyl)benzoic acid]
19 | 6.00 to 7.00 | O=C(O)c1cc(F)cc(Cn2c(=O)n(-c3ccccc3)c3cc(Cl)ccc32)c1 [Example 34, 3-((5-chloro-2-oxo-3-phenyl-2,3-dihydro-1H-benzo[d]imidazol-1-yl)methyl)-5-fluorobenzoic acid]
20 | > 8.00 | CN(C)c1ccc(-n2c(=O)n(C3(c4cccc(C(=O)O)c4)CC3)c3ccc(Cl)cc32)cc1 [Example 69, 3-(1-(5-chloro-3-(4-(dimethylamino)phenyl)-2-oxo-2,3-dihydro-1H-benzo[d]imidazol-1-yl)cyclopropyl)benzoic acid]
21 | 7.00 to 8.00 | CC(C)OC(=O)N1CCN(c2ccc(-n3c(=O)n(Cc4cccc(C(=O)O)c4)c4ccc(Cl)cc43)cc2)CC1 [Example 96, 3-((5-chloro-3-(4-(4-(isopropoxycarbonyl)piperazin-1-yl)phenyl)-2-oxo-2,3-dihydro-1H-benzo[d]imidazol-1-yl)methyl)benzoic acid]
22 | > 8.00 | O=C(O)c1cccc(Cn2c(=O)n(-c3ccc(C(=O)N4CCCC4)cc3)c3cc(Cl)ccc32)c1F [Example 56, 3-((5-chloro-2-oxo-3-(4-(pyrrolidine-1-carbonyl)phenyl)-2,3-dihydro-1H-benzo[d]imidazol-1-yl)methyl)-2-fluorobenzoic acid]
23 | 7.00 to 8.00 | O=C(O)c1cc(F)cc(C2(n3c(=O)n(-c4ccc(C5CCOCC5)cc4)c4cc(Cl)ccc43)CC2)c1 [Example 190, 3-(1-(5-chloro-2-oxo-3-(4-(tetrahydro-2H-pyran-4-yl)phenyl)-2,3-dihydro-1H-benzo[d]imidazol-1-yl)cyclopropyl)-5-fluorobenzoic]
24 | 7.00 to 8.00 | CCCn1cc(-n2c(=O)n(Cc3cccc(C(=O)O)c3)c3ccc(Cl)c(F)c32)cn1 [Example 88, 3-((5-chloro-4-fluoro-2-oxo-3-(1-propyl-1H-pyrazol-4-yl)-2,3-dihydro-1H-benzo[d]imidazol-1-yl)methyl)benzoic acid]
25 | 7.00 to 8.00 | O=C(O)c1cccc(Cn2c(=O)n(-c3ccc(C(=O)N4CCOCC4)cc3)c3cc(Cl)ccc32)c1 [Example 44, 3-((5-chloro-3-(4-(morpholine-4-carbonyl)phenyl)-2-oxo-2,3-dihydro-1H-benzo[d]imidazol-1-yl)methyl)benzoic acid]
26 | > 8.00 | O=C(O)c1cccc(C2(n3c(=O)n(-c4ccc(N5CC(F)(F)C5)cc4)c4cc(Cl)ccc43)CC2)c1 [Example 185, 3-(1-(5-chloro-3-(4-(3,3-difluoroazetidin-1-yl)phenyl)-2-oxo-2,3-dihydro-1H-benzo[d]imidazol-1-yl)cyclopropyl)benzoic acid]
27 | > 8.00 | O=C(O)c1cccc(C2(n3c(=O)n(-c4ccc(-c5nnc(C6CCC(F)(F)CC6)o5)cc4)c4cc(Cl)ccc43)CC2)c1 [Example 138, 3-(1-(5-chloro-3-(4-(5-(4,4-difluorocyclohexyl)-1,3,4-oxadiazol-2-yl)phenyl)-2-oxo-2,3-dihydro-1H-benzo[d]imidazol-1-yl)cyclopropyl)benzoic acid]
28 | 7.00 to 8.00 | CN1Cc2cc(-n3c(=O)n(Cc4cccc(C(=O)O)c4F)c4ccc(Cl)cc43)ccc2C1=O [Example 117, 3-((5-chloro-3-(2-methyl-1-oxoisoindolin-5-yl)-2-oxo-2,3-dihydro-1H-benzo[d]imidazol-1-yl)methyl)-2-fluorobenzoic acid]
29 | 6.00 to 7.00 | O=C(O)c1cccc(Cn2c(=O)n(-c3cnc(N4CCOCC4)nc3)c3cc(Cl)ccc32)c1 [Example 83, 3-((5-chloro-3-(2-morpholinopyrimidin-5-yl)-2-oxo-2,3-dihydro-1H-benzo[d]imidazol-1-yl)methyl)benzoic acid]
30 | > 8.00 | CC(C)(O)Cc1ccc(-n2c(=O)n(C3(c4cccc(C(=O)O)c4)CC3)c3ccc(Cl)cc32)cc1 [Example 216, 3-(1-(5-chloro-3-(4-(2-hydroxy-2-methylpropyl)phenyl)-2-oxo-2,3-dihydro-1H-benzo[d]imidazol-1-yl)cyclopropyl)benzoic acid]
